{
  "source": "patent US20250241918A1",
  "about": "“NOVEL USE OF PYRAZOLOPYRIMIDINE COMPOUND” (HEFEI YOUYUAN PHARMACEUTICAL CO., LTD., priority 2022, published 2025)",
  "key": {"[1]": {"tested_on": "rat colitis model induced by rectal administration of DNBS", "assay": "Rat colitis induced by enema administration of DNBS", "assay_type": "in vivo, Wister rats", "details": "20 mg/kg p.o. QD, day -2 to 6 (G6); DNBS colitis rats; comparable to positive control group", "protocol": "Sixty male Wister rats (purchased from Beijing Vital River Laboratory Animal Technology Co., Ltd.) were randomly divided into six groups, with 10 rats in each group: G1 was the blank control group; G2-G6 were the rat colitis model groups induced by rectal administration of DNBS solution (Tokyo Chemical Industry Co., Ltd., 50 mg/mL DNBS dissolved in 30% ethanol). Various animals were administered with drugs starting from two days before colitis induced by DNBS, and the administration schedules were shown in Table 3 below.\nThe induction of colitis was performed as follows. The rats were fasted for 40 h before administration, and were subcutaneously injected with 5% glucose saline ([…], once a day) during the fast. On day 0, the fasted rats were anesthetized using Zoletil (intraperitoneal injection, 25 mg/kg, purchased from a pharmacy) and xylazine (intraperitoneal injection, 5 mg/kg, purchased from Sigma-Aldrich). In G2-G6 model groups, colitis was induced in rats by inserting a catheter from the anus into the left colic flexure (about 8 cm away from the anus) and administrating DNBS (0.5 mL per rat) through enema administration. The G1 blank control group was administered with 30% ethanol via enema using the same method. In order to avoid the reflux of enema fluid, animals with enema administration were kept in a head-down position for 15 mins, and then maintained in the Trendelenburg position until waking up.\nDuring the administration period, the body weights of rats in all groups were recorded every day. Six days later, the animals were euthanized and the colorectal tissues were collected. The ulcer area of the colorectum, as well as the degrees of adhesion, intestinal obstruction, ulceration, and intestinal wall thickening, were measured. The pathological condition of the intestinal wall was evaluated. The conditions of colon damage was evaluated according to Table 4.\nIf the ulcer is irregular in shape, it can be considered as a rectangle, and then the length and width were measured to evaluate the ulcer area. Ulcer area (cm^2)=ulcer length (cm)×ulcer width (cm)."}, "[2]": {"tested_on": "adjuvant-induced arthritis model rats", "assay": "Adjuvant-induced rat arthritis model", "assay_type": "in vivo, Sprague-Dawley (SD) rats", "details": "Day 21", "protocol": "Experimental animals: Fifty male Sprague-Dawley (SD) rats weighing 180+20 g (provided by Qinglongshan Animal Breeding Center, license number SCXK(Su) 2017-0001) were fed with conventional pellet food (Jiangsu Xietong Biology Co., Ltd.) and housed in a clean animal facility. The rats were housed under a 12 h dark/12 h light cycle with free access to food and water. The temperature was maintained between 20° C. to 26° C., while the relative humidity ranged from 40% to 70%. […] Each group of 10 animals was administered QD for a continuous period of 21 days. […]\nPaw swelling measurement: 1) the volume of right hind paw for the rats in each group was measured and recorded using a plethysmometer for paw volume before administration, which was used as the baseline value before modeling; 2) the volume of the rats' paw was measured at the end of administration (Day 21), which was used as the secondary value; 3) the swelling volume of the rats' paw was calculated according to the following formula: […]\nThe arthritis index scores were determined as following: at the end of administration (Day 21), rats in each group were evaluated according to the scoring standard described in Table 5. […]"}},
  "data": [
    {"smiles": "CN(C)CC(=O)N1CCC[C@@H](n2nc(-c3ccc(Oc4ccccc4)cc3)c3c(N)ncnc32)C1", "note": "[Compound 22, (R)-1-(3-(4-amino-(4-phenoxyphenyl)-1H-pyrazolo[3,4-d]pyrimidin-1-yl)piperidin-1-yl)-2-(dimethylamino) ethanone]", "values": [
      {"measurement": "animal body weights vs G2 model group", "setting": "[1]", "result": "significantly lower than those for the G2 group"},
      {"measurement": "scores for the degrees of adhesion, intestinal obstruction, ulceration, intestinal wall thickening vs G2 model group", "setting": "[1]", "result": "significantly lower than those for the G2 group"},
      {"measurement": "ulcer areas of colorectal tissues vs G2 model group", "setting": "[1]", "result": "significantly lower than those for the G2 group"},
      {"measurement": "paw swelling", "setting": "[2]; 10 mg/kg orally QD", "result": "significantly alleviated paw swelling"},
      {"measurement": "paw swelling", "setting": "[2]; 30 mg/kg orally QD", "result": "significantly alleviated paw swelling"}
    ]}
  ]
}
